Experimental data taken from patent US5981576A, “(Methylsulfonyl)phenyl-2-(5H)-furanones as COX-2 inhibitors” (Merck Frosst Canada, Inc., priority 1998, dated 1999).

Legend:
[1] = target: T1, COX-1 (Homo sapiens, UniProt P23219); experiment: biochemical; format: biochemical; conditions: Table III; U937
Method: Compounds are tested as inhibitors of cyclooxygenase activity in whole cell cyclooxygenase assays. Both of these assays measure prostaglandin E2 synthesis in response to arachidonic acid, using a radioimmunoassay. Cells used for these assays are human osteosarcoma 143 cells (which specifically express COX-2) and human U-937 cells (which specifically express COX-1). In these assays, 100% activity is defined as the difference between prostaglandin E2 synthesis in the absence and presence of arachidonate.
U 937 cells are pelleted by centrifugation at 500×g for 5 min and washed once with phosphate-buffered saline and repelleted. Cells are resuspended in homogenization buffer consisting of 0.1 M Tris-HCl, pH 7.4, 10 mM EDTA, 2 μg/ml leupeptin, 2 μg/ml soybean trypsin inhibitor, 2 μg/ml aprotinin and 1 mM phenyl methyl sulfonyl fluoride. The cell suspension is sonicated 4 times for 10 sec and is centrifuged at 10,000×g for 10 min at 4° C. The supernatant is centrifuged at 100,000×g for 1 hr at 4 ° C. The 100,000×g microsomal pellet is resuspended in 0.1 M Tris-HCl, pH 7.4, 10 mM EDTA to approximately 7 mg protein/ml and stored at -80° C.
Microsomal preparations are thawed immediately prior to use, subjected to a brief sonication, and then diluted to a protein concentration of 125 μg/ml in 0.1 M Tris-HCl buffer, pH 7.4 containing 10 mM EDTA, 0.5 mM phenol, 1 mM reduced glutathione and 1 μM hematin. Assays are performed in duplicate in a final volume of 250 μl. Initially, 5 μd of DMSO vehicle or drug in DMSO are added to 20 μl of 0.1 M Tris-HCl buffer, pH 7.4 containing 10 mM EDTA in wells of a 96-deepwell polypropylene titre plate. 200 μl of the microsomal preparation are then added and pre-incubated for 15 min at room temperature before addition of 25 μl of […] in 0.1 M Tris-HCl and 10 mM EDTA, pH 7.4. […] Cyclooxygenase activity is defined as the difference between PGE2 levels in samples incubated in the presence of arachidonic acid and ethanol vehicle.

[2] = target: T1, COX-1; experiment: Human whole blood assay, COX-1 (clotting-induced TxB2 production); format: cell-based; conditions: Table III, read-out: COX-1 (IC50) HWB
From the text: (§1) As well, platelets in whole blood contain a large amount of the COX-1 enzyme. Immediately following blood clotting, platelets are activated through a thrombin-mediated mechanism. […] Therefore, the degree of selectivity by the test compound can be determined by measuring the levels of PGE2 after LPS induction (COX-2) and TxB2 following blood clotting (COX-1) in the same assay.
B. COX-1 (Clotting-induced TxB2 production)
Fresh blood is collected into vacutainers containing no anticoagulants. Aliquots of 500 μL are immediately transferred to siliconized microcentrifuge tubes preloaded with 2 μL of either DMSO or a test compound at final concentrations varying from 10 nM to 30 μM. The tubes are vortexed and incubated at 37° C. for 1 hour to allow blood to clot. At the end of incubation, serum is obtained by centrifugation (12,000×g for 5 min.). A 100 μL aliquot of serum is mixed with 400 μL of methanol for protein precipitation.

[3] = test system: Rat Paw Edema; experiment: Rat paw edema assay (carrageenan); format: in vivo, Male Sprague-Dawley rats; conditions: 3 h, Table IV, po
Method: Male Sprague-Dawley rats (150-200 g) are fasted overnight and are given, po, either vehicle (1% methocel or 5% Tween 80) or a test compound. One hr later, a line is drawn using a permanent marker at the level above the ankle in one hind paw to define the area of the paw to be monitored. The paw volume (V0) is measured using a plethysmometer (Ugo-Basile, Italy) based on the principle of water displacement. […] The animals are sacrificed by CO2 asphyxiation and the absence or presence of stomach lesions scored. Data is compared with the vehicle-control values and percent inhibition calculated. All treatment groups are coded to eliminate observer bias.

[4] = target: T2, COX-2 (Homo sapiens, UniProt P35354); experiment: cell-based; conditions: Table IV; human whole blood, LPS-induced PGE2; read-out: COX-2 (IC50, μM) HWB
T2 sequence (P35354 18-604): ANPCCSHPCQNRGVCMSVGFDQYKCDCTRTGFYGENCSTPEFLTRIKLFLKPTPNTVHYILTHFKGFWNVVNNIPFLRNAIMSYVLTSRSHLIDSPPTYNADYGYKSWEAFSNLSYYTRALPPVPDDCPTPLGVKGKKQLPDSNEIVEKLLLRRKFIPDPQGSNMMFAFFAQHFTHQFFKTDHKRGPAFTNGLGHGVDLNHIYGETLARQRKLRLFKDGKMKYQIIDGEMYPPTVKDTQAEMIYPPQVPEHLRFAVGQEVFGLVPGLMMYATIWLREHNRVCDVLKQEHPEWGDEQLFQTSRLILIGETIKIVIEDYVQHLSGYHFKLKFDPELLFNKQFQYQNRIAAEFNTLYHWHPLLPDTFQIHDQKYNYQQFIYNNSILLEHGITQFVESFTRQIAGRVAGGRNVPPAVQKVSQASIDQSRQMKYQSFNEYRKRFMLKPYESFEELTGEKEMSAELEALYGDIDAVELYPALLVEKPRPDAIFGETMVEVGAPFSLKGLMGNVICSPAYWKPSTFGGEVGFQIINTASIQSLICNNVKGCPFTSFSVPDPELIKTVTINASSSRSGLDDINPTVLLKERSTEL
From the text: as §1
A. COX-2 (LPS-induced PGF, production)
Fresh blood is collected in heparinized tubes by venipuncture from both male and female volunteers. The subjects have no apparent inflammatory conditions and have not taken any NSAIDs for at least 7 days prior to blood collection. Plasma is immediately obtained from a 2 mL blood aliquot to use as blank (basal levels of PGE2).

[5] = target: T2, COX-2; experiment: cell-based; conditions: Table IV; CHO[hCOX-2] cells, 10 μM AA
Method: Chinese hamster ovary (CHO) cell lines which have been stably transfected with an eukaryotic expression vector pCDNAIII containing either the human COX-1 or COX-2 cDNA's are used for the assay. These cell lines are referred to as CHO [hCOX-1] and CHO [hCOX-2], respectively. […] Cells (0.3×10^6 cells in 200 μl) are preincubated with 3 μl of the test drug or DMSO vehicle for 15 min at 37° C. […] Cells are then challenged in the presence or absence of drug with the AA/HBSS solution to yield a final concentration of 0.5 μM AA in the CHO[hCOX-1] assay and a final concentration of 10 μM AA in the CHO[hCOX-2] assay. […] The samples are centrifuged at 300×g at 4° C. for 10 min, and an aliquot of the clarified supernatant is appropriately diluted for the determination of PGE2 levels using an enzyme-linked immunoassay for PGE2 (Correlate PGE2 enzyme immunoassay kit, Assay Designs, Inc.). Cyclooxygenase activity in the absence of test compounds is determined as the difference in PGE2 levels of cells challenged with arachidonic acid versus the PGE2 levels in cells mock-challenged with ethanol vehicle. Inhibition of PGE2 synthesis by test compounds is calculated as a percentage of the activity in the presence of drug versus the activity in the positive control samples.

[6] = target: T2, COX-2; experiment: biochemical; conditions: Table IV; purified human COX-2; read-out: COX-2 (IC50, μM) TMPD
Method: Assay of the activity of purified human COX-2
The assay mixture (180 μL) contains 100 mM sodium phosphate, pH 6.5, 2 mM genapol X-100, 1 μM hematin, 1 mg/ml gelatin, 80-100 units of purified enzyme (One unit of enzyme is defined as the amount of enzyme required to produce an O.D. change of 0.001/min at 610 nm) and 4 μL of the test compound in DMSO. The mixture is pre-incubated at room temperature (22° C.) for 15 minutes prior to initiation of the enzymatic reaction by the addition of 20 μL of a sonicated solution of 1 mM arachidonic acid (AA) and 1 mM TMPD in assay buffer (without enzyme or hematin). The enzymatic activity is measured by estimation of the initial velocity of TMPD oxidation over the first 36 sec of the reaction. […] IC50 values are derived from 4-parameter least squares non-linear regression analysis of the log-dose vs % inhibition plot.

T1 sequence (P23219 24-599): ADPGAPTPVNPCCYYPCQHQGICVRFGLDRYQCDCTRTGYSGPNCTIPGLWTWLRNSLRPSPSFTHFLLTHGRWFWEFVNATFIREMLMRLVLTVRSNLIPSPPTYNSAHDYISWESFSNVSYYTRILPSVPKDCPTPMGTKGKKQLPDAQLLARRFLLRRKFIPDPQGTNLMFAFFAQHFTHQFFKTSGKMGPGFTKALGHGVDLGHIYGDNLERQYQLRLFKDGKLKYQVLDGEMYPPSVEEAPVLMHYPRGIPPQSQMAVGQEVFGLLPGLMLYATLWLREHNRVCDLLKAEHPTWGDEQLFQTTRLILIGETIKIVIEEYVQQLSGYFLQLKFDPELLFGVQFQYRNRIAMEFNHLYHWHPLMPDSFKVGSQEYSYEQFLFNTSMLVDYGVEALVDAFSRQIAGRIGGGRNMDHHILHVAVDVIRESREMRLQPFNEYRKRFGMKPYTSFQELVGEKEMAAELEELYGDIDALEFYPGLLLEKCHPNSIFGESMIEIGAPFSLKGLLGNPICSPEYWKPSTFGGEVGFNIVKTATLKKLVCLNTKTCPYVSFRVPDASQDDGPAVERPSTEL

Compound | IC50 [1] | IC50 [2] | ED50 [3] | IC50 [4] | IC50 [5] | IC50 [6]
COC1(C)OC(=O)C(Oc2ccc(F)c(F)c2)=C1c1ccc(S(C)(=O)=O)cc1 (stereo not shown) [Example 24c, 3-(3,4-Difluorophenoxy)-5-methoxy-5-methyl-4-(4-(methylsulfonyl)phenyl)-5H-furan-2-one] | > 3 µM | 25.3 µM | – | – | – | –
C[C@]1(CC(F)(F)F)OC(=O)C(Oc2ccc(F)cc2)=C1c1ccc(S(C)(=O)=O)cc1 [Example 166, (5R)-3-(4-fluorophenoxy)-5-methyl-4-(4-methylsulfonyl)phenyl-5-(2,2,2-trifluoroethyl)-5H-furan-2-one] | – | – | 4.9 mg/kg | – | – | –
CC1(C)OC(=O)C(Oc2cncc(Cl)c2)=C1c1ccc(S(C)(=O)=O)cc1 [Example 49, 3-(3-Chloro-5-pyridiloxy)-5,5-dimethyl-4-(4-(methylsulfonyl)phenyl)-5H-furan-2-one] | – | – | – | 0.61 µM | 0.2 µM | 7.8 µM
CC[C@@]1(C)OC(=O)C(Oc2ccc(F)cn2)=C1c1ccc(S(C)(=O)=O)cc1 [Example 162, (5R)-3-(5-Fluoro-2-pyridyloxy)-5-ethyl-5-methyl-4-(4-methylsulfonyl)-phenyl-5H-furan-2-one] | – | – | – | 0.62 µM | 0.06 µM | 8 µM
CC1(C)OC(=O)C(Oc2ccc(F)c(F)c2)=C1c1ccc(S(C)(=O)=O)cc1 [Example 1, 3-(3,4-Difluorophenoxy)-5,5-dimethyl-4-(4-(methylsulfonyl)phenyl)-5H-furan-2-one] | 0.99 µM | 9.2 µM | – | – | – | –
CC1(C)OC(=O)C(OC2CCCCC2)=C1c1ccc(S(C)(=O)=O)cc1 [Example 14, 3-Cyclohexyloxy-5,5-dimethyl-4-(4-(methylsulfonyl)phenyl)-5H-furan-2-one] | > 10 µM | 58.3 µM | – | – | – | –
